Measurements: article doi:10.64898/2025.12.30.696991 (bioRxiv, 2026)

System: intracellular MDR S. Typhimurium (ATCC 700408)
Assay: Intracellular gentamicin protection assay, MDR S. Typhimurium in RAW 264.7 macrophages
Format: cell-based, Salmonella enterica serovar Typhimurium
Settings: Salmonella enterica, RAW264.7, Table 2; intracellular burden 50% in RAW 264.7
Procedure: (§1) RAW 264.7 cells were seeded at 3×10^4 cells/well in a 96-well plate and maintained at 37°C for 20 hours. A single colony of susceptible or MDR S. Typhimurium was inoculated and cultured overnight in nutrient broth and diluted to obtain a log-phase culture stock with an adjusted optical density (OD600) of 0.6, equivalent to a concentration of 3×10^8 CFU/mL (determined by a prior colony forming units (CFU) assay). The bacterial stock solution was resuspended in antibiotic-free DMEM supplemented with 2% FBS and further diluted to obtain a bacterial concentration of 3×10^6 CFU/mL. Cell media was aspirated and replaced with 100 μL of bacteria culture in DMEM resulting in a multiplicity of infection (MOI) of 10. The cells underwent infection for two hours or 30 minutes at 37°C with susceptible or MDR bacteria, respectively. This differential infection incubation period was based on strain-specific infectivity potential. […] Media was aspirated from the wells and replaced with DMEM (2% FBS) containing 100 μg/mL gentamicin for one hour at 37°C to eliminate extracellular bacteria. Following this step, cells were washed once with media and treated for 22 hours with analogs at varying concentrations (0.1 – 5 μM) in DMEM (2% FBS, no pen/strep) containing 10 μg/mL gentamicin to suppress extracellular bacterial growth. AR-12 treated, uninfected, and DMSO-vehicle treated cells were included as controls. Post treatment, cells were washed with PBS and lysed with 0.1% Triton-X100, a concentration sufficient to disrupt host cells while preserving bacterial integrity. The lysates containing intracellular bacteria were serially diluted and enumerated by using drop-plate assay as described previously.([27]) Agar plates were incubated overnight at 37°C before CFU from each dilution were counted.
Supplemental Figure 2: Evaluating lead compound efficacy against MDR S. Typhimurium. A) Schematic illustrating gentamicin protection assay. Day 0 RAW 264.7 macrophages are seeded into 96-well plate and STM culture is inoculated. Day 1: RAW 264.7 cells are infected with STM at an MOI of 10 for 30 min, washed, then treated with gentamicin for 1hr to remove extracellular bacteria. AR-12 analogs added to infected cells for 22hr incubation. Day 2: RAWs are washed, lysed, diluted and then dropped onto agar plates. Day 3: colony forming units (CFUs) counted. B) Dose effect curves of intracellular MDR S. Typhimurium viability from RAW 264.7 macrophages after 22hr treatment with hit compounds. CFUs normalized to untreated controls. Parental compound AR-12 included for comparison.

Row | IC50 | SMILES
1 | 160 nM | NC1CCN(c2ccc(-n3nc(C(F)(F)F)cc3C3CCCCC3)cc2)CC1 [Compound 324]
2 | 100 nM | NCC(=O)Nc1ccc(-n2nc(C(F)(F)F)cc2C2CCCCC2)cc1 [Compound 341]
3 | 120 nM | FC(F)(F)c1cc(C2CCCCC2)n(-c2ccc(N3CCC(NCc4ccccc4)C3)cc2)n1 (stereo not shown) [Compound 364]

Same assay, conditions: Table 2; LC50 / IC50

Row | SMILES | MDR Selectivity
4 | NC1CCN(c2ccc(-n3nc(C(F)(F)F)cc3C3CCCCC3)cc2)CC1 [Compound 324] | 118
5 | NCC(=O)Nc1ccc(-n2nc(C(F)(F)F)cc2C2CCCCC2)cc1 [Compound 341] | 318
6 | FC(F)(F)c1cc(C2CCCCC2)n(-c2ccc(N3CCC(NCc4ccccc4)C3)cc2)n1 (stereo not shown) [Compound 364] | 291

Same assay, conditions: defined as 2-fold difference MDR IC50 / Susc IC50

Row | difference of IC50 between susceptible and MDR S. Typhimurium | SMILES
7 | strongly different | NC1CCN(c2ccc(-n3nc(C(F)(F)F)cc3C3CCCCC3)cc2)CC1 [Compound 324]

System: intracellular susceptible S. Typhimurium (ATCC 700720)
Assay: Intracellular gentamicin protection assay, susceptible S. Typhimurium in RAW 264.7 macrophages
Format: cell-based, Salmonella enterica serovar Typhimurium
Settings: Salmonella enterica, RAW264.7, 22 h, Table 1; concentration at which intracellular susceptible S. Typhimurium burden is 50% in RAW 264.7 macrophages; 22 h treatment; read-out: IC50
Procedure: as §1

Row | IC50 | SMILES
8 | 80 nM | NC1CCN(c2ccc(-n3nc(C(F)(F)F)cc3C3CCCCC3)cc2)CC1 [Compound 324]
9 | 80 nM | NCC(=O)Nc1ccc(-n2nc(C(F)(F)F)cc2C2CCCCC2)cc1 [Compound 341]
10 | 130 nM | FC(F)(F)c1cc(C2CCCCC2)n(-c2ccc(N3CCC(NCc4ccccc4)C3)cc2)n1 (stereo not shown) [Compound 364]

Same assay, conditions: Salmonella enterica, RAW264.7, Table 2; intracellular burden 50% in RAW 264.7; read-out: Susc. IC50

Row | IC50 | SMILES
11 | 80 nM | NC1CCN(c2ccc(-n3nc(C(F)(F)F)cc3C3CCCCC3)cc2)CC1 [Compound 324]
12 | 80 nM | NCC(=O)Nc1ccc(-n2nc(C(F)(F)F)cc2C2CCCCC2)cc1 [Compound 341]
13 | 130 nM | FC(F)(F)c1cc(C2CCCCC2)n(-c2ccc(N3CCC(NCc4ccccc4)C3)cc2)n1 (stereo not shown) [Compound 364]

Same assay, conditions: Table 1; LC50 / IC50, susceptible S. Typhimurium

Row | SMILES | Selectivity
14 | NC1CCN(c2ccc(-n3nc(C(F)(F)F)cc3C3CCCCC3)cc2)CC1 [Compound 324] | 244
15 | NCC(=O)Nc1ccc(-n2nc(C(F)(F)F)cc2C2CCCCC2)cc1 [Compound 341] | 398
16 | FC(F)(F)c1cc(C2CCCCC2)n(-c2ccc(N3CCC(NCc4ccccc4)C3)cc2)n1 (stereo not shown) [Compound 364] | 269

System: planktonic susceptible S. Typhimurium (ATCC 700720)
Assay: Direct effect on planktonic susceptible bacteria (optical density 600 nm)
Format: cell-based, Salmonella enterica serovar Typhimurium
Settings: Salmonella enterica; Table 1; planktonic susceptible S. Typhimurium viability 50% by optical density, 22 hr; read-out: MIC50
Procedure: (§2) A single colony of susceptible or MDR bacteria was inoculated into nutrient broth and incubated overnight at 37°C in an orbital shaker set at 200 rpm. The overnight culture was sub-cultured (1:100) in fresh medium to obtain log-phase bacterial growth after an additional 3 hr incubation at 37°C and further adjusted to obtain a bacterial stock solution with an absorbance value of 0.6 at 600 nm, equivalent to a concentration of 3×10^8 CFU/mL. The bacterial stock was diluted with nutrient broth to obtain 3×10^4 CFU/well in a 96 well plate. Next, 10 μL of each analog were added to yield a total volume of 100 μL /well with a final concentration of 20 μM. Drug-free and bacteria-free wells were used as controls. The plate was incubated at 37°C for 22 hr. Percent bacterial viability was determined using optical density measurements at 600 nm, subtracting out bacteria free absorbance (background) and normalizing to a DMSO vehicle control. Bacterial viability was plotted against increasing drug concentration to obtain the 50% minimum inhibitory concentration (MIC50), defined as the drug concentration resulting in 50% bacterial viability.

Row | MIC50 | SMILES
17 | > 20 µM | NC1CCN(c2ccc(-n3nc(C(F)(F)F)cc3C3CCCCC3)cc2)CC1 [Compound 324]
18 | > 20 µM | NCC(=O)Nc1ccc(-n2nc(C(F)(F)F)cc2C2CCCCC2)cc1 [Compound 341]
19 | > 20 µM | FC(F)(F)c1cc(C2CCCCC2)n(-c2ccc(N3CCC(NCc4ccccc4)C3)cc2)n1 (stereo not shown) [Compound 364]

Same assay, conditions: Salmonella enterica; Table 2; planktonic Salmonella, OD 600 nm; read-out: Susc. MIC50

Row | MIC50 | SMILES
20 | > 20 µM | NC1CCN(c2ccc(-n3nc(C(F)(F)F)cc3C3CCCCC3)cc2)CC1 [Compound 324]
21 | > 20 µM | NCC(=O)Nc1ccc(-n2nc(C(F)(F)F)cc2C2CCCCC2)cc1 [Compound 341]
22 | > 20 µM | FC(F)(F)c1cc(C2CCCCC2)n(-c2ccc(N3CCC(NCc4ccccc4)C3)cc2)n1 (stereo not shown) [Compound 364]

System: not listed separately
Assay: in vitro
Format: cell-based
Settings: mouse, LC50
Procedure: Cell proliferation and viability in the presence of the analogs was tested in the macrophage cell line RAW 264.7 using a 3-(4,5-dimethylthiazol-2-yl)-2,5-diphenyl-2H-tetrazolium bromide (MTT) assay. Cells were seeded at 3×10^4 cells/well in 96 well plates in DMEM (10% FBS, 1% pen/strep). […] DMSO vehicle was utilized as a control, as all the drugs were reconstituted from DMSO stocks. After 24 hr treatment, media was replaced with 100 μL of 0.6 mg/mL MTT solution and the cells were incubated at 37°C until formazan crystals formed. The MTT solution was then replaced with 100 μL of isopropanol, to dissolve the formazan crystals. Cell viability was determined by measuring absorbance at 560 nm of drug treated cells normalized to DMSO vehicle controls. The absorbance at 670 nm was used as a background correction. Cell viability was plotted against increasing drug concentration to obtain the 50% lethal concentration (LC50), defined as the drug concentration resulting in 50% cell viability.

Row | SMILES | CC50 at 24 h
23 | NC1CCN(c2ccc(-n3nc(C(F)(F)F)cc3C3CCCCC3)cc2)CC1 [Compound 324] | 18800 nM
24 | NCC(=O)Nc1ccc(-n2nc(C(F)(F)F)cc2C2CCCCC2)cc1 [Compound 341] | 31800 nM
25 | FC(F)(F)c1cc(C2CCCCC2)n(-c2ccc(N3CCC(NCc4ccccc4)C3)cc2)n1 (stereo not shown) [Compound 364] | 35000 nM

System: planktonic MDR S. Typhimurium (ATCC 700408)
Assay: Direct effect on planktonic MDR bacteria (optical density 600 nm)
Format: cell-based, Salmonella enterica serovar Typhimurium
Settings: Salmonella enterica, Table 2, OD 600 nm
Procedure: as §2

Row | MIC50 | SMILES
26 | > 20 µM | NC1CCN(c2ccc(-n3nc(C(F)(F)F)cc3C3CCCCC3)cc2)CC1 [Compound 324]
27 | > 20 µM | NCC(=O)Nc1ccc(-n2nc(C(F)(F)F)cc2C2CCCCC2)cc1 [Compound 341]
28 | > 20 µM | FC(F)(F)c1cc(C2CCCCC2)n(-c2ccc(N3CCC(NCc4ccccc4)C3)cc2)n1 (stereo not shown) [Compound 364]
